Reference: patent publication US11298333B1, “Methods of reducing the risk of cardiovascular events in a subject” (Amarin Pharmaceuticals Ireland Limited, priority 2018, dated 2022)

Test system: statin-treated patients with a history of atherosclerosis or diabetes
Test: REDUCE-IT Example 2: recurrent and total ischemic events (Andersen-Gill, Wei-Lin-Weissfeld)
Assay type: in vivo, human
Description: The following study was a multi-center, placebo-controlled clinical trial the details of which are described above in Example 1, the REDUCE-IT design. […] Randomization was stratified by cardiovascular risk cohort (i.e., secondary or primary prevention), use of ezetimibe, and by geographic region.
The primary outcome for the study was total recurrent events consisting of the composite of cardiovascular death, nonfatal myocardial infarction, nonfatal stroke, coronary revascularization, or hospitalization for unstable angina. Recurrent event analyses were also performed for the key secondary endpoint, a composite of cardiovascular death, non-fatal myocardial infarction, or non-fatal stroke. For each of these composite endpoints, the effects of icosapent ethyl in the secondary and primary prevention strata were examined separately.
Demographic and baseline disease characteristics are presented using frequencies and percentages for categorical variables and medians with interquartile ranges for continuous variables. Between treatment group comparisons were derived using the chi-square test for categorical variables and Wilcoxon rank test for continuous variables. All clinical endpoint events used in the efficacy analyses were adjudicated by an independent Clinical Endpoint Committee (CEC) who were blinded to the treatment assignment. Since the primary efficacy endpoint was the time from randomization to the first occurrence of any component of the composite endpoint, and recurrence of such events within each patient is possible, a pre-specified analysis using a Cox proportional-hazard with the counting-process formulation of Andersen and Gill was performed to model the first and all recurrent cardiovascular events. Hazard ratios (HR) and corresponding 95% confidence intervals (CI) are reported from this model. In addition, as a marginal model and an extension of survival models based on the Cox proportional hazard model, the modified Wei-Lin-Weissfeld (WLW) method for analysis of recurrent events in the presence of deaths was carried out as a supportive analysis. In addition, as pre-specified, a recurrent event analysis using the Andersen-Gill and Wei-Lin-Weissfeld methods were carried out for the individual primary event components other than CV death. Though not pre-specified, additional recurrent event analyses were performed for the key secondary endpoint, which is a composite of CV death, non-fatal MI, or non-fatal stroke, and for the primary endpoint and the key secondary endpoint in the primary and secondary prevention strata to explore further the consistency of clinical benefit of icosapent ethyl. In subgroup analyses of the two cardiovascular risk strata (i.e., primary and secondary prevention), site-level discrepancies in cardiovascular risk group assignment occurring at entry and detected during the study (1.8%) were adjusted to conform with documented medical history data prior to randomization. All efficacy analyses were performed according to the intention-to-treat principle. All tests were based on a 2-sided nominal significance level of 5% with no adjustments for multiple comparisons.

[1] = without adjusting for stratification differences
[2] = without adjustment for stratification differences

`CC/C=C\C/C=C\C/C=C\C/C=C\C/C=C\CCCC(=O)OCC` [Icosapent Ethyl, eicosapentaenoic acid ethyl ester] was tested. Which “First occurrence of primary composite endpoint: HR vs placebo” value (Wei-Lin-Weissfeld model) did it give?
Its value is 0.75.

What about the “Second occurrence of primary composite endpoint: HR vs placebo” value (Wei-Lin-Weissfeld model) of the same compound?
The value was 0.72.

What about the “Total key secondary endpoints: HR, primary prevention stratum” value (adjusted stratification) of the same compound?
The value was 0.71.

And the “Total key secondary endpoints: HR, secondary prevention stratum” value (adjusted stratification)?
Its value is 0.70.

What about the “Total primary endpoint events: HR, primary prevention stratum” value (adjusted stratification) of the same compound?
The value was 0.79.

What about the “Total primary endpoint events: HR, secondary prevention stratum” value (adjusted stratification) of the same compound?
Its value is 0.66.

And the “Cardiovascular deaths prevented per 100 patients treated for five years” value (in vivo)?
Its value is 1.

And the “Coronary revascularizations prevented per 100 patients treated for five years” value (in vivo)?
The value was 8.

What about the “Episodes of unstable angina prevented per 100 patients treated for five years” value (in vivo) of the same compound?
The value was 2.

What about the “Myocardial infarctions prevented per 100 patients treated for five years” value (in vivo) of the same compound?
The value was 4.

What about the “Relative risk reduction in total events for the primary composite efficacy outcome” value (in vivo) of the same compound?
Its value is 32%.

And the “Strokes prevented per 100 patients treated for five years” value (in vivo)?
Its value is 1.

What about the “Total key secondary endpoints: HR vs placebo” value (overall) of the same compound?
Its value is 0.71.

And the “Total primary endpoint events: HR, primary prevention stratum” value [1]?
The value was 0.86.

What about the “Total primary endpoint events: HR, secondary prevention stratum” value [1] of the same compound?
Its value is 0.65.

What about the “Total key secondary endpoint events: HR, primary prevention” value [2] of the same compound?
The value was 0.78.

What about the “Total key secondary endpoint events: HR, secondary prevention stratum” value [2] of the same compound?
Its value is 0.69.
